Data from the NIST ThermoML archive (doi:10.1016/j.fluid.2019.06.022).
“And” between values parts separate entries of the source, which are not always exact repeats. Equal entries are not always repeated.

Assay: xn = mol fraction of the nth substance listed
Settings: Liquid; for mass density: Bellows volumetry; for viscosity: Falling or rolling sphere viscometry

C=CC [propene] + Cc1ccccc1
Settings | mass density, x1 = 0.0787 [kg/m3] | mass density, x1 = 0.3073 [kg/m3] | viscosity, x1 = 0.0787 | viscosity, x1 = 0.3073
294.8 K, 16200 kPa | 839.2 | – | 0.656 mPa·s and 0.638 mPa·s | –
294.8 K, 27900 kPa | 847.6 | – | 0.7 mPa·s and 0.696 mPa·s | –
294.8 K, 28000 kPa | 847.6 | – | 0.689 mPa·s | –
294.8 K, 28100 kPa | 847.6 | – | 0.696 mPa·s | –
294.8 K, 28200 kPa | 849.8 | – | 0.694 mPa·s and 0.693 mPa·s | –
294.8 K, 40900 kPa | 855.9 | – | 0.77 mPa·s and 0.772 mPa·s | –
294.8 K, 56200 kPa | 864.7 | – | 0.856 mPa·s | –
294.8 K, 56300 kPa | 864.7 | – | 0.854 mPa·s | –
297.5 K, 3700 kPa | – | 753 | – | 0.356 mPa·s and 0.355 mPa·s
297.5 K, 10800 kPa | – | 759 | – | 0.371 mPa·s
297.5 K, 10900 kPa | – | 759 | – | 0.363 mPa·s
297.5 K, 20700 kPa | – | 766.9 | – | 0.399 mPa·s and 0.4 mPa·s
297.5 K, 21200 kPa | – | 767.5 | – | 0.408 mPa·s and 0.412 mPa·s
297.5 K, 30500 kPa | – | 774.9 | – | 0.439 mPa·s
297.5 K, 30600 kPa | – | 774.9 | – | 0.44 mPa·s
297.5 K, 30700 kPa | – | 774.9 | – | 0.431 mPa·s and 0.433 mPa·s
297.5 K, 48400 kPa | – | 787.8 | – | 0.491 mPa·s
297.5 K, 48500 kPa | – | 787.8 | – | 0.49 mPa·s
297.5 K, 69000 kPa | – | 800.9 | – | 0.555 mPa·s
297.5 K, 69100 kPa | – | 800.9 | – | 0.552 mPa·s
323.1 K, 3300 kPa | – | 728.4 | – | 0.276 mPa·s
323.1 K, 3700 kPa | – | 728.4 | – | 0.277 mPa·s
323.1 K, 10200 kPa | – | 736.3 | – | 0.294 mPa·s
323.1 K, 11000 kPa | – | 736.3 | – | 0.295 mPa·s
323.1 K, 21100 kPa | – | 747.5 | – | 0.319 mPa·s
323.1 K, 21200 kPa | – | 747.5 | – | 0.316 mPa·s
323.1 K, 35000 kPa | – | 758.2 | – | 0.363 mPa·s
323.1 K, 35100 kPa | – | 758.2 | – | 0.36 mPa·s and 0.352 mPa·s
323.1 K, 35200 kPa | – | 758.2 | – | 0.35 mPa·s
323.1 K, 48500 kPa | – | 768.2 | – | 0.389 mPa·s and 0.385 mPa·s
323.1 K, 68900 kPa | – | 782.5 | – | 0.441 mPa·s and 0.442 mPa·s
325.2 K, 7100 kPa | 808.6 | – | 0.423 mPa·s | –
325.2 K, 7400 kPa | 808.6 | – | 0.421 mPa·s | –
325.2 K, 13900 kPa | 814.5 | – | 0.435 mPa·s | –
325.2 K, 14200 kPa | 814.2 | – | 0.44 mPa·s | –
325.2 K, 20600 kPa | 819.6 | – | 0.468 mPa·s and 0.467 mPa·s | –
325.2 K, 26900 kPa | 824.5 | – | 0.493 mPa·s | –
325.2 K, 27100 kPa | 824.5 | – | 0.495 mPa·s | –
325.2 K, 40500 kPa | 833.6 | – | 0.543 mPa·s and 0.534 mPa·s | –
325.2 K, 40700 kPa | 833.6 | – | 0.542 mPa·s and 0.533 mPa·s | –
325.2 K, 51500 kPa | 840.7 | – | 0.58 mPa·s | –
325.2 K, 51600 kPa | 840.7 | – | 0.584 mPa·s and 0.589 mPa·s | –
325.2 K, 51900 kPa | 840.7 | – | 0.583 mPa·s | –
325.2 K, 67700 kPa | 850.9 | – | 0.644 mPa·s | –
325.2 K, 67900 kPa | 850.9 | – | 0.645 mPa·s | –
325.2 K, 68000 kPa | 850.9 | – | 0.645 mPa·s and 0.661 mPa·s | –
373.4 K, 3400 kPa | – | 677.6 | – | 0.179 mPa·s
373.4 K, 3500 kPa | – | 677.6 | – | 0.177 mPa·s
373.4 K, 6700 kPa | – | 682.7 | – | 0.185 mPa·s
373.4 K, 6800 kPa | – | 682.7 | – | 0.186 mPa·s
373.4 K, 17500 kPa | – | 697.6 | – | 0.206 mPa·s and 0.207 mPa·s
373.4 K, 27500 kPa | – | 710.3 | – | 0.225 mPa·s
373.4 K, 27700 kPa | – | 710.2 | – | 0.224 mPa·s
373.4 K, 39100 kPa | – | 722.7 | – | 0.244 mPa·s
373.4 K, 39200 kPa | – | 722.7 | – | 0.243 mPa·s
373.4 K, 39300 kPa | – | 722.7 | – | 0.246 mPa·s
373.4 K, 39600 kPa | – | 722.7 | – | 0.247 mPa·s
373.4 K, 54700 kPa | – | 737.2 | – | 0.27 mPa·s
373.4 K, 54800 kPa | – | 737.2 | – | 0.271 mPa·s
373.4 K, 69000 kPa | – | 748.6 | – | 0.297 mPa·s
373.4 K, 69100 kPa | – | 748.6 | – | 0.296 mPa·s
376.9 K, 2400 kPa | 759.5 | – | 0.252 mPa·s | –
